PubChem BioAssay (NCI)
Values joined by “and” are separate entries in the source; they are usually repeats but may differ in a detail not shown here. Equal values may be shown once.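 Dose response: 5 concentrations. Exposure: 48 h. Format: 96-well plates. Endpoint: linear interpolation; highest concentration if not reached. Abbreviation: GI50, concentration required for 50% inhibition of growth. Definition used: TGI = concentration required for complete inhibition of growth.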

Legend:
Test in all cases: NCI-60 cell line screen, 48 h
NCI-H226 lung = tested on: NCI-H226 lung
HL-60(TB) leukemia = tested on: HL-60(TB) leukemia
MOLT-4 leukemia = tested on: MOLT-4 leukemia
LOX IMVI melanoma = tested on: LOX IMVI melanoma
OVCAR-3 ovarian = tested on: OVCAR-3 ovarian
SK-MEL-28 melanoma = tested on: SK-MEL-28 melanoma
K-562 leukemia = tested on: K-562 leukemia
SK-MEL-2 melanoma = tested on: SK-MEL-2 melanoma
NCI-H460 lung = tested on: NCI-H460 lung
PC-3 prostate = tested on: PC-3 prostate

| Structure (SMILES) | GI50 (NCI-H226 lung) [µM] | TGI (NCI-H226 lung) | GI50 (HL-60(TB) leukemia) | TGI (HL-60(TB) leukemia) | GI50 (MOLT-4 leukemia) [µM] | TGI (MOLT-4 leukemia) | GI50 (LOX IMVI melanoma) [µM] | TGI (LOX IMVI melanoma) | GI50 (OVCAR-3 ovarian) | TGI (OVCAR-3 ovarian) | GI50 (SK-MEL-28 melanoma) | TGI (SK-MEL-28 melanoma) | GI50 (K-562 leukemia) [µM] | TGI (K-562 leukemia) [µM] | GI50 (SK-MEL-2 melanoma) | TGI (SK-MEL-2 melanoma) | GI50 (NCI-H460 lung) | TGI (NCI-H460 lung) | GI50 (PC-3 prostate) [µM] | TGI (PC-3 prostate) [µM] |
| --- | --- | --- | --- | --- | --- | --- | --- | --- | --- | --- | --- | --- | --- | --- | --- | --- | --- | --- | --- | --- |
| COc1ccc2c(c1)C(=O)/C(=C/c1ccc([N+](=O)[O-])s1)O2 | 1.91 | 4.81 µM | 0.713 µM | > 26.1 µM | 0.867 | > 33.7 µM | 0.256 | 0.637 µM | 0.252 µM | 0.548 µM | 0.248 µM | 0.689 µM | 0.291 | 12.2 | 0.325 µM | 0.875 µM | 0.411 µM | 1.64 µM | 0.283 | – |
| CS(=O)(=O)Nc1cccc(-c2ccc3c(NC(=O)C4CC4)n[nH]c3c2)c1 | 2.59 | > 25 µM | 1.73 µM | 10.8 µM | 6.27 | > 25 µM | 1.82 | > 25 µM | 0.641 µM | 1.96 µM | 3.4 µM | > 25 µM | 0.776 | > 25 | 1.37 µM | > 25 µM | 7.76 µM | > 25 µM | 3.24 | > 25 |
| CCCCCCCCCCCCCCCCOC(=O)c1c(C)[nH]c(/C=C2\N=C(c3ccc[nH]3)C=C2OC)c1C | 4.54 | 15.2 µM | 0.151 µM | > 100 µM | > 100 | > 100 µM | 0.0346 | 0.144 µM | 1.67 µM | 6.91 µM | 3.94 µM | > 48.7 µM | 0.413 | > 100 | 0.249 µM | 1.34 µM | 0.0429 µM | > 100 µM | 0.162 | > 100 |
| O=C(Nc1cccnc1)c1cccc([N+](=O)[O-])c1 | > 100 | > 100 µM | > 100 µM | > 100 µM | > 100 | > 100 µM | > 100 | > 100 µM | > 100 µM | > 100 µM | > 100 µM | > 100 µM | > 100 | > 100 | > 100 µM | > 100 µM | > 100 µM | > 100 µM | > 100 | > 100 |
| C/C=C(\CCC1NCCc2c1[nH]c1ccccc21)[Si](C)(C)C (centres undefined) | – | 18.6 µM and 21.6 µM | 6.28 µM and 1.51 µM | 13.2 µM and 3.3 µM | – | 13.8 µM and 8.98 µM | – | 38.5 µM and 4.84 µM | 0.413 µM and 2.91 µM | 2.39 µM and 7.41 µM | 6.42 µM and 1.83 µM | 11.3 µM and 3.36 µM | – | 9.29 | 5.28 µM and 1.94 µM | 9.67 µM and 3.7 µM | 5.56 µM and 1.92 µM | 10.9 µM and 3.78 µM | – | 16.1 |
